Literature values, collected in patent US20190151045A1, “Device and Methods for Disinfecting Dental Lines” (Toppen Medical Dental LLC, priority 2017, published 2019).
Where two headings read alike, the source gives them in different places.

Conditions: dissipates into molecular oxygen, 0.5 mg/L ozone in dental water line

## O=[O+][O-] [ozone]
  half-life (t1/2) of ozone: ~20 min
Listed as Ozone
  half-life (t1/2) of ozone: about 20 min
